Laboratory results: patent US20250163104A1, “MACROCYCLIC IMMUNOMODULATORS” (priority 2021, published 2025)
pIC50: −log10 of the molar value. *1 amine or outer side, *2 acyl side, *3 side chain or, on linkers, in order; H or OH if unused. Where a SMILES comes first, the peptide text is derived from it. Bridges are numbered along the chain shown (N, C = ends). [ ]: non-standard residue; d: D form. Bip(4'-COOH) = N[C@@H](Cc1ccc(-c2ccc(C(=O)O)cc2)cc1)C(=O)O; Bip(4'-NHAc) = CC(=O)Nc1ccc(-c2ccc(C[C@H](N)C(=O)O)cc2)cc1; X10 = CCc1ccccc1-c1ccc(C[C@H](N[*:1])C(=O)[*:2])cc1; Ala(indol-4-yl) = N[C@@H](Cc1cccc2[nH]ccc12)C(=O)O; Trp(5-CN) = N#Cc1ccc2[nH]cc(C[C@H](N)C(=O)O)c2c1; Phe(3,4-Cl2) = N[C@@H](Cc1ccc(Cl)c(Cl)c1)C(=O)O; Phe(3-CF3) = N[C@@H](Cc1cccc(C(F)(F)F)c1)C(=O)O; Ala(morpholin-4-yl) = N[C@@H](CN1CCOCC1)C(=O)O; Phe(4-COOH) = N[C@@H](Cc1ccc(C(=O)O)cc1)C(=O)O; X5 = O=C([C@H](Cc1ccc2ncccc2c1)N[*:1])[*:2]; Bip = N[C@@H](Cc1ccc(-c2ccccc2)cc1)C(=O)O; Phe(4-NH2) = Nc1ccc(C[C@H](N)C(=O)O)cc1; 1Nal = N[C@@H](Cc1cccc2ccccc12)C(=O)O; 2Nal = N[C@@H](Cc1ccc2ccccc2c1)C(=O)O; Bta = N[C@@H](Cc1csc2ccccc12)C(=O)O; hPhe = N[C@@H](CCc1ccccc1)C(=O)O; Cha = N[C@@H](CC1CCCCC1)C(=O)O; Orn = NCCC[C@H](N)C(=O)O; Dab = NCC[C@H](N)C(=O)O

The compounds below were run against T1, human PD-1 / PD-L1-Ig binding on Jurkat cell line over-expressing human PD-1 (Jurkat-PD-1) (Homo sapiens, UniProt Q15116) (assay: Jurkat-PD-1 Cell Binding High-Content Screening Assay (CBA)). Conditions: Jurkat-PD-1 cells, PE-labeled PD-L1-Ig 20 nM final; read-out: Jurkat HPD1_PDL1 IC50.
T1 construct: expressed in transfected cells; host or cells: Jurkat
T1 sequence (Q15116 25-288): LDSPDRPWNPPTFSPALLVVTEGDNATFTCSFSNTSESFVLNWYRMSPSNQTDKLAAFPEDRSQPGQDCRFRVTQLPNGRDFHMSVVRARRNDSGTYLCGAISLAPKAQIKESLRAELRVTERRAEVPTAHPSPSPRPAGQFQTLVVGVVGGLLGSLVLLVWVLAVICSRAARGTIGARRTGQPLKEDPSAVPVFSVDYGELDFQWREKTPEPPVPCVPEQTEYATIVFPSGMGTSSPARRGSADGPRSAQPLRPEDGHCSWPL
Assay type: cell-based
Outline: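 Jurkat-hPD-1 cells in DMEM with 10% fetal calf serum receive test compound and are held at 37° C for 2 h. PE-labeled PD-L1-Ig is added at 20 nM final and left for 1 hour. Cells are then fixed and Hoechst-stained, and binding is measured by imaging.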

`CCc1ccccc1-c1ccc(C[C@@H]2NC(=O)[C@H](Cc3cccc(C(F)(F)F)c3)NC(=O)[C@H](CC(=O)O)NC(=O)[C@H](Cc3ccc(C(=O)O)cc3)NC(=O)[C@H](CN3CCOCC3)NC(=O)CSC[C@@H](C(=O)N[C@@H](CCN)C(N)=O)NC(=O)[C@H](CCC(=O)O)NC(=O)[C@H](C(C)C)NC(=O)[C@H](CC3CCCCC3)NC(=O)[C@H](CCN)NC(=O)[C@@H](CC(C)C)NC(=O)[C@H](CCCN)NC(=O)[C@H](Cc3ccc(C(=O)O)cc3)NC(=O)[C@H](Cc3ccc(-c4ccccc4)cc3)NC2=O)cc1` [Example 2734] ({CH2CO}-[Ala(morpholin-4-yl)][Phe(4-COOH)]D[Phe(3-CF3)][X10][Bip][Phe(4-COOH)][Orn][dL][Dab][Cha]VEC[Dab]-NH2; thioether N-14) and `CC(C)C[C@H]1NC(=O)[C@H](CCCN)NC(=O)[C@H](Cc2ccc(C(=O)O)cc2)NC(=O)[C@H](Cc2ccc(-c3ccccc3)cc2)NC(=O)[C@H](Cc2cccc3ccccc23)NC(=O)[C@H](Cc2cccc(C(F)(F)F)c2)NC(=O)[C@H](CC(=O)O)NC(=O)[C@H](Cc2ccc(C(=O)O)cc2)NC(=O)[C@H](CN2CCOCC2)NC(=O)CSC[C@@H](C(=O)N[C@@H](CCN)C(N)=O)NC(=O)[C@H](CCC(=O)O)NC(=O)[C@H](C(C)C)NC(=O)[C@H](CC2CCCCC2)NC(=O)[C@H](CCN)NC1=O` [Example 2737] ({CH2CO}-[Ala(morpholin-4-yl)][Phe(4-COOH)]D[Phe(3-CF3)][1Nal][Bip][Phe(4-COOH)][Orn][dL][Dab][Cha]VEC[Dab]-NH2; thioether N-14) are within 0.2 log units of each other in pIC50: 8.24 for the first, 8.27 for the second.

Compared with `CC(C)C[C@H]1NC(=O)[C@H](CCCN)NC(=O)[C@H](Cc2ccc(C(=O)O)cc2)NC(=O)[C@H](Cc2ccc(-c3ccccc3)cc2)NC(=O)[C@H](Cc2ccc(-c3ccc(C(=O)O)cc3)cc2)NC(=O)[C@H](Cc2cccc(C(F)(F)F)c2)NC(=O)[C@H](CC(=O)O)NC(=O)[C@H](Cc2ccc(C(=O)O)cc2)NC(=O)[C@H](CN2CCOCC2)NC(=O)CSC[C@@H](C(=O)N[C@@H](CCN)C(N)=O)NC(=O)[C@H](CCC(=O)O)NC(=O)[C@H](C(C)C)NC(=O)[C@H](CC2CCCCC2)NC(=O)[C@H](CCN)NC1=O` [Example 2735] ({CH2CO}-[Ala(morpholin-4-yl)][Phe(4-COOH)]D[Phe(3-CF3)][Bip(4'-COOH)][Bip][Phe(4-COOH)][Orn][dL][Dab][Cha]VEC[Dab]-NH2; thioether N-14), `CC(=O)Nc1ccc(-c2ccc(C[C@@H]3NC(=O)[C@H](Cc4cccc(C(F)(F)F)c4)NC(=O)[C@H](CC(=O)O)NC(=O)[C@H](Cc4ccc(C(=O)O)cc4)NC(=O)[C@H](CN4CCOCC4)NC(=O)CSC[C@@H](C(=O)N[C@@H](CCN)C(N)=O)NC(=O)[C@H](CCC(=O)O)NC(=O)[C@H](C(C)C)NC(=O)[C@H](CC4CCCCC4)NC(=O)[C@H](CCN)NC(=O)[C@@H](CC(C)C)NC(=O)[C@H](CCCN)NC(=O)[C@H](Cc4ccc(C(=O)O)cc4)NC(=O)[C@H](Cc4ccc(-c5ccccc5)cc4)NC3=O)cc2)cc1` [Example 2736] ({CH2CO}-[Ala(morpholin-4-yl)][Phe(4-COOH)]D[Phe(3-CF3)][Bip(4'-NHAc)][Bip][Phe(4-COOH)][Orn][dL][Dab][Cha]VEC[Dab]-NH2; thioether N-14) is 0.30 log units higher in pIC50: 8.66 for the first, 8.96 for the second. The second is the more potent here.

`CC(C)C[C@H]1NC(=O)[C@H](CCCN)NC(=O)[C@H](Cc2ccc(C(=O)O)cc2)NC(=O)[C@H](Cc2ccc(-c3ccccc3)cc2)NC(=O)[C@H](Cc2ccc3ccccc3c2)NC(=O)[C@H](Cc2cccc(C(F)(F)F)c2)NC(=O)[C@H](CC(=O)O)NC(=O)[C@H](Cc2ccc(C(=O)O)cc2)NC(=O)[C@H](CN2CCOCC2)NC(=O)CSC[C@@H](C(=O)N[C@@H](CCN)C(N)=O)NC(=O)[C@H](CCC(=O)O)NC(=O)[C@H](C(C)C)NC(=O)[C@H](CC2CCCCC2)NC(=O)[C@H](CCN)NC1=O` [Example 2738] ({CH2CO}-[Ala(morpholin-4-yl)][Phe(4-COOH)]D[Phe(3-CF3)][2Nal][Bip][Phe(4-COOH)][Orn][dL][Dab][Cha]VEC[Dab]-NH2; thioether N-14) and `CC(C)C[C@H]1NC(=O)[C@H](CCCN)NC(=O)[C@H](Cc2ccc(C(=O)O)cc2)NC(=O)[C@H](Cc2ccc(-c3ccccc3)cc2)NC(=O)[C@H](Cc2ccc3ncccc3c2)NC(=O)[C@H](Cc2cccc(C(F)(F)F)c2)NC(=O)[C@H](CC(=O)O)NC(=O)[C@H](Cc2ccc(C(=O)O)cc2)NC(=O)[C@H](CN2CCOCC2)NC(=O)CSC[C@@H](C(=O)N[C@@H](CCN)C(N)=O)NC(=O)[C@H](CCC(=O)O)NC(=O)[C@H](C(C)C)NC(=O)[C@H](CC2CCCCC2)NC(=O)[C@H](CCN)NC1=O` [Example 2741] ({CH2CO}-[Ala(morpholin-4-yl)][Phe(4-COOH)]D[Phe(3-CF3)][X5][Bip][Phe(4-COOH)][Orn][dL][Dab][Cha]VEC[Dab]-NH2; thioether N-14) are the same in pIC50: 8.64 for the first, 8.64 for the second.

`CC(C)C[C@H]1NC(=O)[C@H](CCCN)NC(=O)[C@H](Cc2ccc(C(=O)O)cc2)NC(=O)[C@H](Cc2ccc(-c3ccccc3)cc2)NC(=O)[C@H](Cc2csc3ccccc23)NC(=O)[C@H](Cc2cccc(C(F)(F)F)c2)NC(=O)[C@H](CC(=O)O)NC(=O)[C@H](Cc2ccc(C(=O)O)cc2)NC(=O)[C@H](CN2CCOCC2)NC(=O)CSC[C@@H](C(=O)N[C@@H](CCN)C(N)=O)NC(=O)[C@H](CCC(=O)O)NC(=O)[C@H](C(C)C)NC(=O)[C@H](CC2CCCCC2)NC(=O)[C@H](CCN)NC1=O` [Example 2739] ({CH2CO}-[Ala(morpholin-4-yl)][Phe(4-COOH)]D[Phe(3-CF3)][Bta][Bip][Phe(4-COOH)][Orn][dL][Dab][Cha]VEC[Dab]-NH2; thioether N-14) and `CC(C)C[C@H]1NC(=O)[C@H](CCCN)NC(=O)[C@H](Cc2ccc(C(=O)O)cc2)NC(=O)[C@H](Cc2ccc(-c3ccccc3)cc2)NC(=O)[C@H](Cc2cccc3[nH]ccc23)NC(=O)[C@H](Cc2cccc(C(F)(F)F)c2)NC(=O)[C@H](CC(=O)O)NC(=O)[C@H](Cc2ccc(C(=O)O)cc2)NC(=O)[C@H](CN2CCOCC2)NC(=O)CSC[C@@H](C(=O)N[C@@H](CCN)C(N)=O)NC(=O)[C@H](CCC(=O)O)NC(=O)[C@H](C(C)C)NC(=O)[C@H](CC2CCCCC2)NC(=O)[C@H](CCN)NC1=O` [Example 2742] ({CH2CO}-[Ala(morpholin-4-yl)][Phe(4-COOH)]D[Phe(3-CF3)][Ala(indol-4-yl)][Bip][Phe(4-COOH)][Orn][dL][Dab][Cha]VEC[Dab]-NH2; thioether N-14) are within 0.2 log units of each other in pIC50: 8.49 for the first, 8.34 for the second.

Going from `CC(C)C[C@H]1NC(=O)[C@H](CCCN)NC(=O)[C@H](Cc2ccc(C(=O)O)cc2)NC(=O)[C@H](Cc2ccc(-c3ccccc3)cc2)NC(=O)[C@H](Cc2c[nH]c3ccc(C#N)cc23)NC(=O)[C@H](Cc2cccc(C(F)(F)F)c2)NC(=O)[C@H](CC(=O)O)NC(=O)[C@H](Cc2ccc(C(=O)O)cc2)NC(=O)[C@H](CN2CCOCC2)NC(=O)CSC[C@@H](C(=O)N[C@@H](CCN)C(N)=O)NC(=O)[C@H](CCC(=O)O)NC(=O)[C@H](C(C)C)NC(=O)[C@H](CC2CCCCC2)NC(=O)[C@H](CCN)NC1=O` [Example 2740] ({CH2CO}-[Ala(morpholin-4-yl)][Phe(4-COOH)]D[Phe(3-CF3)][Trp(5-CN)][Bip][Phe(4-COOH)][Orn][dL][Dab][Cha]VEC[Dab]-NH2; thioether N-14) to `CC(C)C[C@H]1NC(=O)[C@H](CCCN)NC(=O)[C@H](Cc2ccc(C(=O)O)cc2)NC(=O)[C@H](Cc2ccc(-c3ccccc3)cc2)NC(=O)[C@H](Cc2ccc(Cl)c(Cl)c2)NC(=O)[C@H](Cc2cccc(C(F)(F)F)c2)NC(=O)[C@H](CC(=O)O)NC(=O)[C@H](Cc2ccc(C(=O)O)cc2)NC(=O)[C@H](CN2CCOCC2)NC(=O)CSC[C@@H](C(=O)N[C@@H](CCN)C(N)=O)NC(=O)[C@H](CCC(=O)O)NC(=O)[C@H](C(C)C)NC(=O)[C@H](CC2CCCCC2)NC(=O)[C@H](CCN)NC1=O` [Example 2745] ({CH2CO}-[Ala(morpholin-4-yl)][Phe(4-COOH)]D[Phe(3-CF3)][Phe(3,4-Cl2)][Bip][Phe(4-COOH)][Orn][dL][Dab][Cha]VEC[Dab]-NH2; thioether N-14), the pIC50 rises from 8.32 to 8.64 (0.32 log units).

`CC(C)C[C@H]1NC(=O)[C@H](CCCN)NC(=O)[C@H](Cc2ccc(C(=O)O)cc2)NC(=O)[C@H](Cc2ccc(-c3ccccc3)cc2)NC(=O)[C@H](Cc2ccc(N)cc2)NC(=O)[C@H](Cc2cccc(C(F)(F)F)c2)NC(=O)[C@H](CC(=O)O)NC(=O)[C@H](Cc2ccc(C(=O)O)cc2)NC(=O)[C@H](CN2CCOCC2)NC(=O)CSC[C@@H](C(=O)N[C@@H](CCN)C(N)=O)NC(=O)[C@H](CCC(=O)O)NC(=O)[C@H](C(C)C)NC(=O)[C@H](CC2CCCCC2)NC(=O)[C@H](CCN)NC1=O` [Example 2743] ({CH2CO}-[Ala(morpholin-4-yl)][Phe(4-COOH)]D[Phe(3-CF3)][Phe(4-NH2)][Bip][Phe(4-COOH)][Orn][dL][Dab][Cha]VEC[Dab]-NH2; thioether N-14) and `CC(C)C[C@H]1NC(=O)[C@H](CCCN)NC(=O)[C@H](Cc2ccc(C(=O)O)cc2)NC(=O)[C@H](Cc2ccc(-c3ccccc3)cc2)NC(=O)[C@H](CCc2ccccc2)NC(=O)[C@H](Cc2cccc(C(F)(F)F)c2)NC(=O)[C@H](CC(=O)O)NC(=O)[C@H](Cc2ccc(C(=O)O)cc2)NC(=O)[C@H](CN2CCOCC2)NC(=O)CSC[C@@H](C(=O)N[C@@H](CCN)C(N)=O)NC(=O)[C@H](CCC(=O)O)NC(=O)[C@H](C(C)C)NC(=O)[C@H](CC2CCCCC2)NC(=O)[C@H](CCN)NC1=O` [Example 2744] ({CH2CO}-[Ala(morpholin-4-yl)][Phe(4-COOH)]D[Phe(3-CF3)][hPhe][Bip][Phe(4-COOH)][Orn][dL][Dab][Cha]VEC[Dab]-NH2; thioether N-14) are within 0.2 log units of each other in pIC50: 8.66 for the first, 8.47 for the second.
